In patent US20240415819A1, “MACROCYCLIC COMPOUNDS AS PROTEASOME SUBUNIT BETA TYPE-5 INHIBITORS” (Lead Discovery Center GmbH, priority 2021, published 2024) one finds IC50 data, which are given here for 14 compounds.

The test system of one experiment is HT-29 cells. As to the kind of experiment: CellTiter-Glo luminescent cell viability assay with HT-29 cells (72h incubation). It is filed as cell-based, human. To be noted: Homo sapiens, HT-29, HT29 cells, read-out: CTG HT29. As for the experimental part: Cell Titer Glo Viability Assay with HT-29 Cells (72h Incubation) The CellTiter-Glo Luminescent Cell Viability Assay (Promega) is a homogeneous method of determining the number of viable cells in culture. It is based on quantification of ATP, indicating the presence of metabolically active cells. On day 1 400 HT-29 cells per well are seeded in white 384well plates (Greiner, #781080) in 25 μl cell culture medium (DMEM (PAN-Biotech #P04-03590)+10% FCS+glutamine). After incubation for 24 h at 37° C./5% CO2 compounds or DMSO are added at different concentrations by Echo Liquid Handling Technology. Cells are further incubated in humidified chambers for 72 h at 37° C. and 5% CO2. Cells treated with the compound vehicle DMSO are used as positive controls and cells treated with 10 μM Staurosporine serve as negative controls. At day 5-72h after compound addition—the CellTiter Glo Reagent is prepared according to the instructions of the kit (Promega Inc.): Reagent is mixed 1:1 with cell culture medium. Thereon, mixture and assay plates are equilibrated at room temperature for 20 min. Equal volumes of the reagent-medium-mixture is added to the volume of culture medium present in each well. The plates are mixed at […] for 2 minutes on an orbital shaker. The microplates are then incubated at room temperature for 10 minutes for stabilization of the luminescent signal. Following incubation the luminescence is recorded on a Victor microplate reader (Perkin Elmer) using a 200 ms integration time. The data is then analyzed with Excel using the XLFIT Plugin (dose response Fit 205) for IC50-determination. As quality control the Z′-factor is calculated from 16 positive and negative control values. […] Inhibition is indicated as IC50 [nM] (“-”=not measured).
On the technique in general: Cellular ATP, detected with luciferase, serves as a proxy for viable cell number.

Experiment [1] relates to A549 (human lung carcinoma cell line). As to the kind of experiment: Glo assay of A549 cells (Table 3; ProteasomeGlo plating scheme). It is filed as cell-based. To be noted: Homo sapiens; A549 cells; read-out: PGLo A549. An excerpt:
Inhibition is indicated as IC50 [nM] (“-”=not measured). […] • Chymotrypsin-Like Cell-Based Proteasome-GloTM Assay (Promega; […]) • Cell culture 384-well plates (Greiner BioOne; 781080) • Dispensing cassette, MultiDrop Standard tube dispensing cassette (Thermo Scientific; 24072670) • DPBS (Pan BioTech; P04-36500) • Cell culture 384-well plates (Greiner BioOne; 781080) • CPD source plate: diamond-shape plate (Labcyte; LP-0200) • Intermediate plate (Labcyte; P-05525) [table] • a. Remove the plates with cells from the incubator. • b. Take all the plates including the compound plate, intermediate plate and Staurosporine plate to the ECHO. • c. Click on “Open” in the ECHO software and select the protocol “QLI5_25ul_30 uM-Grenier”. • d. Follow the on-screen prompts and instructions once you click “Start” to insert the compound plate, intermediate plate and destination plates. • e. Change the final number of destination plates on the program. • f. Follow the on-screen prompts and instructions once you click “Start” to load the Staurosporine and destination plates. • g. Once all the compounds, DMSO and Staurosporine have been transferred, place the destination plates in a wet tissue box. • h. Place the destination plates back into the incubator and incubate at 37° C., 5% CO2 for 105 minutes. • i. Re-seal all the compound+Stauro diamond and intermediate plates and store in the dark. Chymotrypsin like ProteasomeGlo Assay • 1. Thaw the components of the ProteasomeGlo assay at room temperature including the ProteasomeGlo Buffer, the lyophilized Luciferin Detection Reagent and the Suc-LLVY-Glo Substrate. • 2. Reconstitute the Luciferin Detection Reagent in the amber coloured bottle by adding 50 ml of the ProteasomeGlo Buffer. • 3. Vortex the Suc-LLVY-Glo Substrate briefly to reconstitute the Substrate well. • 4. Spin down the Substrate and add 250 μl of the Substrate to the reconstituted Luciferin Detection Reagent from step 2. • 5. Briefly vortex the amber bottle with the mix to prepare a homogenous solution. • 6. Place the mix prepared in step 5 to sit at room temperature for 60 minutes. • 7. After 60 minutes, pipette 25 μl of the mix from step 5 into all wells with the cells. • 8. Shake the plates for 2-5 minutes to ensure the complete mixing of the ProteasomeGlo reagent with the cells. • 9. Leave the plates in the dark for 10-15 minutes. • 10. Measure the luminescence read-out using the Viktor and the protocol “Luminescence_384Well_0.2 sec”. (Note: The Protoeasome-GloTM Reagent (combined Proteasome-GloTM Substrate, Proteasome-GloTM Buffer and Luciferin Detection Reagent) can be stored at 4° C. or -20° C. for 1 month with minimal loss of activity.)

For experiment [2], the target named is T1, β5 subunit of the human immunoproteasome (IPS) (Homo sapiens, UniProt P28062).
T1 construct: purchased Boston Biochem E-370
Nature of the experiment: β5 inhibition assay, human immunoproteasome (Suc-LLVY-AMC). It is filed as biochemical. Particulars: IC50 class, Suc-LLVY-AMC substrate. As for the experimental part: The enzymatic activity of the β5 subunit of the human constitutive proteasome (CPS) is analyzed. In another assay, which differs from the assay of the human constitutive proteasome only in using the human immunoproteasome (IPS) the enzymatic activity of the β5 subunit of the human immunoproteasome (IPS) is analyzed. Incubation of the enzyme with its fluorogenic substrate Suc-LLVY-AMC leads to liberation of the fluorescent dye AMC which can be measured with a suitable plate reader. • 100 mM HEPES pH7.5 • 50 mM NaCl • 0.02% SDS • 1 mM DTT (add fresh) • Victor X5 (Perkin Elmer) • Label: Umbeliferone (0.1s) • Excitation wavelength: 355 nm • Emission wavelength: 460 nm • 4 μl human cPS or IPS enzyme in assay buffer (final assay concentration 1 nM) or 4 μl assay buffer for negative controls • Compound addition via acoustic dispenser (Echo 520, Labcyte) • Mix and incubate @ RT for 10 min • 4 μl Suc-LLVY-AMC substrate (final assay concentration 22.6 μM) • Mix and incubate @ RT for 4 h (dark) • Stop reaction with 4 μl Bortezomib (final assay concentration 1 μM) • 15 min @ RT • Measure (Excitation 355 nm; Emission 460 nm)

In experiment [3] the target is T2, β5 subunit of the human constitutive proteasome (CPS) (Homo sapiens, UniProt P28074).
T2 construct: purchased Boston Biochem E-360
Nature of the experiment: β5 inhibition assay, human constitutive proteasome (Suc-LLVY-AMC). It is filed as biochemical. To be noted: IC50 class, Suc-LLVY-AMC substrate. As to the method: The enzymatic activity of the β5 subunit of the human constitutive proteasome (CPS) is analyzed. In another assay, which differs from the assay of the human constitutive proteasome only in using the human immunoproteasome (IPS) the enzymatic activity of the β5 subunit of the human immunoproteasome (IPS) is analyzed. […] Inhibition is indicated as IC50 [nM] (“-”=not measured).

As for `Cc1ccc2cc1CNC(=O)[C@H](CCc1ccccc1)NC(=O)[C@@H](NC(=O)Cc1ccc(N)cc1)CC(=O)N1CCC[C@H](CCO2)C1` [Compound 172, 2-(4-aminophenyl)-N-((13R,9S,12S)-5^4-methyl-8,11,14-trioxo-9-phenethyl-4-oxa-7,10-diaza-1(3,1)-piperidina-5(1,3)-benzenacyclotetradecaphane-12-yl)acetamide], the IC50 with HT-29 cells is < 100 nM. Consider `Cc1ccc2cc1CNC(=O)[C@H](CCc1ccccc1)NC(=O)[C@@H](NS(=O)(=O)CCCc1ccccc1)CC(=O)N1CCCC(CCO2)C1` (stereo partly drawn) [Compound 44, N-((9S,12S)-5^4-methyl-8,11,14-trioxo-9-phenethyl-4-oxa-7,10-diaza-1(3,1)-piperidina-5(1,3)-benzenacyclotetradecaphane-12-yl)-3-phenyloropane-1-sulfonamide], for which the IC50 in the experiment on HT-29 cells was < 100 nM. Regarding `CC(=O)N[C@H]1CC(=O)N2CCCC(CCOc3ccc(C)c(c3)CNC(=O)C(c3cnn(CCS(=O)(=O)O)c3)NC1=O)C2` (stereo partly drawn) [Compound 572, N-(4-((12S)-12-acetamido-5^4-methyl-8,11,14-trioxo-4-oxa-7,10-diaza-1(3,1)-piperidina-5(1,3)-benzenacyclotetradecaphane-9-yl)-1H-pyrazol-1-yl)ethane-1-sulfonic acid], the IC50 in the experiment with HT-29 cells lay in the range of 100 to 500 nM.

Turning to `CC(=O)N[C@H]1CC(=O)N2CC3CC(Oc4ccc(C)c(c4)CNC(=O)[C@H](CCc4ccccc4)NC1=O)C3C2` (some centres unmarked) [Compound 298, N-(3^4-methyl-6,9,12-trioxo-7-phenethyl-2-oxa-13,5,8-triaza-1(6,3)-bicyclo[3.2.0]heptana-3(1,3)-benzenacyclododecaphane-10-yl)acetamide], in the experiment with HT-29 cells, the IC50 was 100 to 500 nM. For `Cc1cccc(CC(=O)N[C@H]2CC(=O)N3CCCC(CCOc4ccc(C)c(c4)CNC(=O)[C@H](CCc4ccccc4)NC2=O)C3)c1` (stereo partly drawn) [Compound 62, N-((9S,12S)-5^4-methyl-8,11,14-trioxo-9-phenethyl-4-oxa-7,10-diaza-1(3,1)-piperidina-5(1,3)-benzenacyclotetradecaphane-12-yl)-2-(m-tolyl)acetamide], the IC50 in the experiment on HT-29 cells is < 100 nM. In the case of `Cc1ccc2cc1CNC(=O)[C@H](CCc1ccccc1)NC(=O)[C@@H](NC(=O)CCOCCCC1CCCC1)CC(=O)N1CCCC(CCO2)C1` (stereo partly drawn) [Compound 620, 3-(3-cyclopentylpropoxy)-N-((9S,12S)-5^4-methyl-8,11,14-trioxo-9-phenethyl-4-oxa-7,10-diaza-1(3,1)-piperidina-5(1,3)-benzenacyclotetradecaphane-12-yl)propanamide], the IC50 in experiment [1], in experiment [2] and in experiment [3] was < 100 nM each time.

For the compound `CC(=O)N[C@H]1CC(=O)N2CCCC(CCOc3ccc(C)c(c3)CNC(=O)C(CCc3ccccc3)NC1=O)C2` (stereo partly drawn) [Compound 550, N-((12S)-5^4-methyl-8,11,14-trioxo-9-phenethyl-4-oxa-7,10-diaza-1(3,1)-piperidina-5(1,3)-benzenacyclotetradecaphane-12-yl)acetamide], the IC50 with HT-29 cells was < 100 nM. `Cc1ccc2cc1CNC(=O)[C@H](CCc1ccccc1)NC(=O)CCCCCC(=O)N1CCCC(CCO2)C1` (stereo partly drawn) [Compound 22, (9S)-5^4-methyl-9-phenethyl-4-oxa-7,10-diaza-1(3,1)-piperidina-5(1,3)-benzenacycloheptadecaphane-8,11,17-trione]: the IC50 in the experiment on HT-29 cells fell in the range of 1000 to 5000 nM. In the case of `CCNC(=O)N[C@H]1CC(=O)N2CCCC(CCOc3ccc(C)c(c3)CNC(=O)[C@H](CCc3ccccc3)NC1=O)C2` (stereo partly drawn) [Compound 38, 1-ethyl-3-((9S,12S)-5^4-methyl-8,11,14-trioxo-9-phenethyl-4-oxa-7,10-diaza-1(3,1)-piperidina-5(1,3)-benzenacyclotetradecaphane-12-yl)urea], in the experiment with HT-29 cells, the IC50 is < 100 nM.

Turning to `CC(=O)N[C@H]1CC(=O)N2CCC(C2)Oc2ccc(C)c(c2)CNC(=O)[C@H](CCc2ccccc2)NC1=O` (stereo partly drawn) [Compound 261, N-((7S,10S)-3^4-methyl-6,9,12-trioxo-7-phenethyl-2-oxa-5,8-diaza-1(3,1)-pyrrolidina-3(1,3)-benzenacyclododecaphane-10-yl)acetamide], the IC50 in the experiment with HT-29 cells lay within 100 to 500 nM. As for `Cc1ccc2cc1CNC(=O)[C@H](CCc1ccccc1)NC(=O)[C@@H](NC(=O)CCNC(=O)C1CCC3(CCOCC3)CC1)CC(=O)N1CCCC(CCO2)C1` (some centres unmarked) [Compound 576], the IC50 in experiment [2] and in experiment [3] was < 100 nM each time. For the compound `Cc1ccc2cc1CNC(=O)[C@H](CCc1ccccc1)NC(=O)[C@@H](NC(=O)Cc1ccc(N)cc1)CC(=O)N1CCC[C@@H](CCO2)C1` [Compound 173, 2-(4-aminophenyl)-N-((13S,9S,12S)-5^4-methyl-8,11,14-trioxo-9-phenethyl-4-oxa-7,10-diaza-1(3,1)-piperidina-5(1,3)-benzenacyclotetradecaphane-12-yl)acetamide], the IC50 in the experiment on HT-29 cells fell in the range of 100 to 500 nM. In the case of `CCC1(C(=O)N[C@H]2CC(=O)N3CCCC(CCOc4ccc(C)c(c4)CNC(=O)[C@H](CCc4ccccc4)NC2=O)C3)CCNCC1` (stereo partly drawn) [Compound 151, 4-ethyl-N-((9S,12S)-5^4-methyl-8,11,14-trioxo-9-phenethyl-4-oxa-7,10-diaza-1(3,1)-piperidina-5(1,3)-benzenacyclotetradecaphane-12-yl)piperidine-4-carboxamide], the IC50 in the experiment with HT-29 cells is < 100 nM. Regarding `Cc1ccc2cc1CNC(=O)[C@H](CCc1ccccc1)NC(=O)[C@@H](NC(=O)Cc1cccc(Cl)c1)CC(=O)N1CCCC(CCO2)C1` (stereo partly drawn) [Compound 61, 2-(3-chlorophenyl)-N-((9S,12S)-54-methyl-8,11,14-trioxo-9-phenethyl-4-oxa-7,10-diaza-1(3,1)-piperidina-5(1,3)-benzenacyclotetradecaphane-12-yl)acetamide], in the experiment on HT-29 cells, the IC50 was < 100 nM.
